Experimental data taken from patent US4416877A, “Anti-atherosclerotic pharmaceutical compositions containing diphosphonate compounds” (priority 1979, dated 1983).
Read-outs that look alike come from different tables or passages of the source.

Assays:
[1] = system: lipid metabolism; test: Effects of diphosphonates on lipid metabolism in normal rats (serum lipids, α/β cholesterol); format: in vivo, male Wistar rats; conditions: for change in vivo at 200 mg/kg/day: Rattus norvegicus, po, normal rats (N), 200 mg/kg/day p.o.
Procedure, shortened: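 Normal male Wistar rats (~200 g, 4–5/group) dosed orally with diphosphonates 200 mg/kg/day for 4–21 days, in 24 mM bicarbonate buffer or corn oil. Serum taken after overnight fast; free fatty acids, triglycerides, phospholipids and heparin/CaCl2-precipitated β-lipoprotein cholesterol measured. Values given as % of control; <15% difference deemed non-significant.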

[2] = Oral LD50 toxicity; format: in vivo
Excerpt: Following the extensive pharmacological screening of these compounds, using over 2000 animals, those showing the most potential were then subjected to toxicity testing for further selection relative to their activity/toxicity risk profiles
By way of LD50 (Lethal Dose 50) the methyl diphosphonates were discovered to have a significant lower degree of toxicity. […] This represents a significant six fold difference in toxicity.

[3] = system: alpha/beta cholesterol ratio; test: Comparison of clofibrate, gemfibrozil and fenofibrate to compound 16: alpha/beta cholesterol ratio in normal Wistar rats; format: in vivo; conditions: 100 mg/kg for 10 days, n = 5
Method: It should be noted that these diphosphonate compounds are different and novel in comparison to the classical hypolipidemic compounds as illustrated in Table V. The diphosphonate ester used for comparison was the only one to increase the alpha/beta cholesterol ratio in control rats.
Each drug was administered at 100 mg/kg for 10 days

[4] = system: lipoprotein cholesterol; test: Lipoprotein cholesterol changes in normal rats treated for 90 days; format: in vivo, male and female rats
Method: Treating male and female rats with 40, 400 and 800 mg/kg of compound 16 per day for 90 days produced a sustained dose response augmentation in serum high density lipoprotein cholesterol (HDL-C or α-cholesterol) as high as 220% above controls at high dose level (Table VI).
*Plasma was pooled from 5 animals of each group and analyzed.

[5] = system: lipoprotein cholesterol; test: Lipoprotein cholesterol in cholesterol pre-fed rabbits; format: in vivo; conditions: 200 mg/kg per day, 4 months, n = 5
Excerpt: Animals were fed a cholesterol rich diet for 8 weeks before treatment was
started which continued for 4 months without cholesterol supplement.

[6] = Atheromateous surface involvement and intima thickening of aortas in cholesterol pre-fed rabbits; format: in vivo; conditions: 4 months
[7] = system: α/β cholesterol ratio; test: Lipoprotein changes produced by one dose in a Cynomolgus monkey; format: in vivo; conditions: for α/β cholesterol ratio: 250 mg/kg p.o.

With `COP(=O)(OC)OC(c1ccc(Cl)cc1)P(=O)(OC)OC` (stereo not drawn) [Compound 16, Dimethyl α(dimethoxyphosphinyl) p-chlorobenzyl phosphate] the change in vivo at 200 mg/kg/day ([1]; read-out: Serum Chol. α/β (% control values)) was 121%, the change in vivo at 200 mg/kg/day ([1]; read-out: Serum Free Fatty Acids (% control values)) was -50% and the change in vivo at 200 mg/kg/day ([1]; read-out: Serum Phospholipids (% control values)) was 26%. The change in vivo at 200 mg/kg/day ([1]; read-out: Serum Triglycerides (% control values)) was < 15%, the “increased HDL lipids, especially HDL cholesterol” value ([1]; normal rats) was “observed most dramatically” and the “increase in serum phospholipid” value ([1]; rats) was “found to increase”. For the same compound, the “α-cholesterol/β-cholesterol ratio / lipoprotein cholesterol” value ([1]; rats) was “highly significant activity”, the LD50 ([2]; in vivo, oral) was 3040 mg/kg and the “difference in toxicity (LD50, compound 16 vs compound 24)” value ([2]; oral LD50) was “six fold”. For the same compound, the “alpha/beta Cholesterol Ratio” value [3] was 9.69 ± 0.76, the α-chol ([4]; 40 mg/kg, female) was 54 mg/dL and the α/β ratio ([4]; 40 mg/kg, female) was 6.0. For the same compound, the β-chol ([4]; 40 mg/kg, female) was 9.0 mg/dL, the α-chol ([4]; 40 mg/kg, male) was 63 mg/dL and the α/β ratio ([4]; 40 mg/kg, male) was 7.6. The β-chol ([4]; 40 mg/kg, male) was 8.3 mg/dL, the α-chol ([4]; 400 mg/kg, female) was 68 mg/dL and the α/β ratio ([4]; 400 mg/kg, female) was 11.5. For the same compound, the β-chol ([4]; 400 mg/kg, female) was 5.9 mg/dL, the α-chol ([4]; 400 mg/kg, male) was 78 mg/dL and the α/β ratio ([4]; 400 mg/kg, male) was 11.5. The β-chol ([4]; 400 mg/kg, male) was 7.6 mg/dL, the α-chol ([4]; 800 mg/kg, female) was 117 mg/dL and the α/β ratio ([4]; 800 mg/kg, female) was 11.3. It also gave a β-chol ([4]; 800 mg/kg, female) of 10.3 mg/dL, a α-chol ([4]; 800 mg/kg, male) of 128 mg/dL and a α/β ratio ([4]; 800 mg/kg, male) of 10.7. The β-chol ([4]; 800 mg/kg, male) was 11.9 mg/dL, the “augmentation in serum HDL-C (α-cholesterol) above controls” value ([4]; high dose level (800 mg/kg)) was ≤ 220% and the “Total Cholesterol” value [5] was 127.0 ± 68.0. The α-chol [5] was 41.1 ± 11.1, the α/β-ratio [5] was 0.94 and the β-chol [5] was 63.4 ± 43.0. For the same compound, the α/β-ratio ([5]; listed as Cpd 16) was 0.94 ± 0.20, the “Arch Intima/Media Ratio” value ([6]; 100 mg/kg/day, n = 4) was 0.79 and the “Arterial Wall Thickness, Arch Intima” value ([6]; 100 mg/kg/day, n = 4) was 41.82 ± 0.93 Units in Area. The “Arterial Wall Thickness, Thoracic Intima” value ([6]; 100 mg/kg/day, n = 4) was 7.66 ± 0.12 Units in Area, the “Surface Involved in Atheromateous Plaques, Arch” value ([6]; 100 mg/kg/day, n = 4) was 88 ± 9% and the “Surface Involved in Atheromateous Plaques, Thoracic” value ([6]; 100 mg/kg/day, n = 4) was 50 ± 15%. The “Surface Involved in Atheromateous Plaques, Total Aorta” value ([6]; 100 mg/kg/day, n = 4) was 68 ± 12%, the “Thoracic Intima/Media Ratio” value ([6]; 100 mg/kg/day, n = 4) was 0.23 and the “aorta intimal thickening” value ([6]; cholesterol pre-fed rabbits) was “decreased aorta intimal thickening”. The “atherosclerosis surface involvement” value ([6]; cholesterol pre-fed rabbits) was “decreased atherosclerosis surface involvement”, the α/β cholesterol ratio ([7]; +1h) was 0.71 and the α/β cholesterol ratio ([7]; +2h) was 0.82. The α/β cholesterol ratio ([7]; +3h) was 0.83, the α/β cholesterol ratio ([7]; +5h) was 0.89 and the α/β cholesterol ratio ([7]; +6h) was 0.92. For the same compound, the α/β ratio ([7]; additional administration, 5 days) was 0.88 and the “increase in α/β cholesterol levels” value ([7]; single oral dose 250 mg/kg, 6 hours) was 39%.
